system: Raji cells; test: Cytotoxicity, Cell Titer-Glo, Raji cells; type: cell-based; settings: Homo sapiens, 24 hours incubation, read-out: Raji cells IC50 (cell death)
Procedure: (§1) The raji (ATCC), raw (ATCC) and PBMCs cells were suspended in buffer (RPMI 1640 complete medium containing 10% FBS, SIGMA), respectively, and the cell density was counted. The cells were transferred to wells of a 96-well plate, ensuring that the cell density of each well was 1×10^4 cells/well, and incubated for 24 hours at 37° C., 5% CO2 with compounds at different concentrations (100 μM, 50 μM, 25 μM, 12.5 μM, 6.25 μM and 3.125 μM) and buffer control solution (0.2% DMSO). To each well, 100 μL of Cell Titer-Glo Luminescent Solution (Promega) was added and shaken for 10 minutes at room temperature, and then GloMax® Navigator System was used to measure the system […], and the cell death rate was calculated. Cell death rate (%)=(1−RLUcompound/RLUcontrol)×100%, and IC50 was determined from the inhibition curve.

| SMILES | IC50 [µM] |
| --- | --- |
| Cc1c(CNc2ccc(CN[C@H](CO)C(=O)O)c(OCc3cccc(C#N)c3)c2)cccc1-c1ccccc1 [Compound 4] | > 100 |
| COc1cc(NCc2cccc(-c3ccccc3)c2C)cc(OCc2cccc(C#N)c2)c1CN[C@H](CO)C(=O)O [Compound 8] | > 100 |
| Cc1c(CNc2ccc(CN[C@H](CO)C(=O)O)c(OCc3cncc(C#N)c3)c2)cccc1-c1ccccc1 [Compound 10] | > 100 |
| COc1cc(NCc2cccc(-c3ccccc3)c2C)c(C)cc1CNC(CO)C(=O)O (centres unmarked) [Compound 14] | > 100 |
| Cc1cc(CN[C@H](CO)C(=O)O)c(OCc2cccnc2)cc1NCc1cccc(-c2ccccc2)c1C [Compound 17] | 78.9 |
| Cc1cc(CN2C[C@H](O)C[C@H]2C(=O)O)c(OCc2cncc(C#N)c2)cc1NCc1cccc(-c2ccccc2)c1C [Compound 21] | > 100 |
| Cc1c(CN(C)c2ccc(CNCCO)c(OCc3cccc(C#N)c3)c2)cccc1-c1ccccc1 [Compound 27] | 84.1 |
| N#Cc1cncc(COc2cc(NCc3cccc(-c4ccccc4)c3Br)ccc2CNC(CO)C(=O)O)c1 (centres unmarked) [Compound 31] | > 100 |
| Cc1c(CNc2ccc(CN[C@H](CO)C(=O)O)c(OCc3cccc(C#N)c3)c2)cccc1-c1ccc2c(c1)OCCO2 [Compound 34] | 90.3 |
| Cc1c(COc2ccc(CNC(CO)C(=O)O)c(OCc3cncc(C#N)c3)c2)cccc1-c1ccccc1 (centres unmarked) [Compound 37, reference compound] | 22.6 |
| Cc1c(C#N)cncc1COc1cc(OCc2cccc(-c3ccccc3)c2C)ccc1CNC(CO)C(=O)O (centres unmarked) [Compound 38, reference compound] | 32.1 |

biological target: PD-1/PD-L1 interaction (Homo sapiens (Human), UniProt Q9NZQ7); test: PD-1/PD-L1 Binding Assay kit (Cisbio), HTRF; settings: 8-10 concentrations, read-out: IC50 of inhibition of PD-1/PD-L1 interaction
Sequence (Q9NZQ7 19-238): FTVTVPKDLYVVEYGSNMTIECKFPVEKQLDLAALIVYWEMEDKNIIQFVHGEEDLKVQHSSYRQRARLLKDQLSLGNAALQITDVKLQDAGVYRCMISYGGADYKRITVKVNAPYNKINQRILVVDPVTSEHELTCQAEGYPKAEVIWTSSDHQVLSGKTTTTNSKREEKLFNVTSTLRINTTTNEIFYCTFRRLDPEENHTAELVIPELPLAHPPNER

| IC50 [µM] | SMILES |
| --- | --- |
| 4.94 | CC(=O)NCCNCc1ccc(NCc2cccc(-c3ccccc3)c2C)cc1OCc1cccc(C#N)c1 [Compound 1] |
| 3.67 | Cc1c(CNc2ccc(CNCCO)c(OCc3cccc(C#N)c3)c2)cccc1-c1ccccc1 [Compound 2] |
| 2.6 | Cc1c(CNc2ccc(CNC(CO)CO)c(OCc3cccc(C#N)c3)c2)cccc1-c1ccccc1 [Compound 3] |
| 1.16 | Cc1c(CNc2ccc(CN[C@H](CO)C(=O)O)c(OCc3cccc(C#N)c3)c2)cccc1-c1ccccc1 [Compound 4] |
| 0.436 | Cc1cc(NCc2cccc(-c3ccccc3)c2C)cc(OCc2cccc(C#N)c2)c1CN[C@H](CO)C(=O)O [Compound 6] |
| 0.363 | Cc1cc(NCc2cccc(-c3ccccc3)c2C)cc(OCc2cncc(C#N)c2)c1CN[C@H](CO)C(=O)O [Compound 7] |
| 0.672 | COc1cc(NCc2cccc(-c3ccccc3)c2C)cc(OCc2cccc(C#N)c2)c1CN[C@H](CO)C(=O)O [Compound 8] |
| 4.24 | COc1nc(NCc2cccc(-c3ccccc3)c2C)ccc1CNCCNC(C)=O [Compound 9] |
| 0.038 | Cc1c(CNc2ccc(CN[C@H](CO)C(=O)O)c(OCc3cncc(C#N)c3)c2)cccc1-c1ccccc1 [Compound 10] |
| 0.092 | Cc1cc(CN[C@H](CO)C(=O)O)c(OCc2cccnc2)cc1NCc1cccc(-c2ccccc2)c1C [Compound 17] |
| 0.024 | Cc1cc(CN2C[C@H](O)C[C@H]2C(=O)O)c(OCc2cncc(C#N)c2)cc1NCc1cccc(-c2ccccc2)c1C [Compound 21] |
| 22.6 | Cc1c(CN(C)c2ccc(CNCCO)c(OCc3cccc(C#N)c3)c2)cccc1-c1ccccc1 [Compound 27] |
| 0.435 | Cc1c(CNc2ccc(CN[C@H](CO)C(=O)O)c(OCc3cccc(C#N)c3)c2)cccc1-c1ccc2c(c1)OCCO2 [Compound 34] |

system: Raw cells; test: Cytotoxicity, Cell Titer-Glo, Raw cells; type: cell-based; settings: 24 hours incubation; read-out: Raw cells IC50 (cell death)
Procedure: as §1

| SMILES | IC50 [µM] |
| --- | --- |
| Cc1c(CNc2ccc(CN[C@H](CO)C(=O)O)c(OCc3cccc(C#N)c3)c2)cccc1-c1ccccc1 [Compound 4] | > 100 |
| COc1cc(NCc2cccc(-c3ccccc3)c2C)cc(OCc2cccc(C#N)c2)c1CN[C@H](CO)C(=O)O [Compound 8] | > 100 |
| Cc1c(CNc2ccc(CN[C@H](CO)C(=O)O)c(OCc3cncc(C#N)c3)c2)cccc1-c1ccccc1 [Compound 10] | > 100 |
| COc1cc(NCc2cccc(-c3ccccc3)c2C)c(C)cc1CNC(CO)C(=O)O (centres unmarked) [Compound 14] | > 100 |
| Cc1cc(CN[C@H](CO)C(=O)O)c(OCc2cccnc2)cc1NCc1cccc(-c2ccccc2)c1C [Compound 17] | 61.6 |
| Cc1cc(CN2C[C@H](O)C[C@H]2C(=O)O)c(OCc2cncc(C#N)c2)cc1NCc1cccc(-c2ccccc2)c1C [Compound 21] | 88.2 |
| Cc1c(CN(C)c2ccc(CNCCO)c(OCc3cccc(C#N)c3)c2)cccc1-c1ccccc1 [Compound 27] | > 100 |
| N#Cc1cncc(COc2cc(NCc3cccc(-c4ccccc4)c3Br)ccc2CNC(CO)C(=O)O)c1 (centres unmarked) [Compound 31] | > 100 |
| Cc1c(CNc2ccc(CN[C@H](CO)C(=O)O)c(OCc3cccc(C#N)c3)c2)cccc1-c1ccc2c(c1)OCCO2 [Compound 34] | > 100 |
| Cc1c(COc2ccc(CNC(CO)C(=O)O)c(OCc3cncc(C#N)c3)c2)cccc1-c1ccccc1 (centres unmarked) [Compound 37, reference compound] | 31.2 |
| Cc1c(C#N)cncc1COc1cc(OCc2cccc(-c3ccccc3)c2C)ccc1CNC(CO)C(=O)O (centres unmarked) [Compound 38, reference compound] | 28.8 |

system: Human peripheral blood mononuclear cells (PBMCs); test: Promotion of IFN-γ secretion in PBMCs treated with anti-CD3/anti-CD28 and PDL1/FC fusion protein (ELISA); type: cell-based; settings: compound 0.1 μM, hPD-L1 10.0 μg/mL, 72 h
Procedure: Human peripheral blood mononuclear cells (PBMCs) were isolated from 10-15 ml of whole blood of healthy volunteers using experimental human lymphocyte separation medium (TBD sciences). The cells were washed twice with normal saline and resuspended in buffer (RPMI 1640 complete medium containing 10% FBS, SIGMA) to count the cell density. The PBMCs were dispersed and placed in a 96-well plate, 1×10^5 cells and 50 μL of buffer per well. Anti-CD3 antibody (SIGMA) and anti-CD28 antibody (SIGMA) were mixed at a ratio of 1:1 to obtain an antibody mixture. The antibody mixture was added to the wells to ensure that the final concentration of antibody was 0.8 μg/mL. At the same time, PDL1/FC fusion protein (SINO BIOLOGICAL) was added to reach a final concentration of 10.0 μg/mL, and the compound to be tested was diluted with buffer and added to the wells to reach a final concentration of 0.1 μM or 1 μM. The mixed system was incubated at 37° C. and 5% CO2 for 72 h. The supernatant was collected, and the expression level of IFN-γ was measured by ELISA MAXTM Human IFN-γ Standard Kit (BioLegend), and the increase rate was calculated. Increase rate (%)=(expression amount of compound treatment−expression amount of PDL1 treatment)/expression amount of PDL1 treatment×100%

| SMILES | IFN-γ [pg/mL] | Increase rate of IFN-γ expression vs PDL1 treatment [%] |
| --- | --- | --- |
| Cc1c(CNc2ccc(CN[C@H](CO)C(=O)O)c(OCc3cncc(C#N)c3)c2)cccc1-c1ccccc1 [Compound 10] | 37700 | 77.0 |
| Cc1c(COc2ccc(CNC(CO)C(=O)O)c(OCc3cncc(C#N)c3)c2)cccc1-c1ccccc1 (centres unmarked) [Compound 37, reference compound] | 23200 | 8.9 |
| Cc1c(C#N)cncc1COc1cc(OCc2cccc(-c3ccccc3)c2C)ccc1CNC(CO)C(=O)O (centres unmarked) [Compound 38, reference compound] | 23300 | 9.4 |

same assay, conditions: compound 1.0 μM, hPD-L1 10.0 μg/mL, 72 h

| SMILES | IFN-γ [pg/mL] | Increase rate of IFN-γ expression vs PDL1 treatment [%] |
| --- | --- | --- |
| Cc1c(CNc2ccc(CN[C@H](CO)C(=O)O)c(OCc3cncc(C#N)c3)c2)cccc1-c1ccccc1 [Compound 10] | 41500 | 94.8 |
| Cc1c(COc2ccc(CNC(CO)C(=O)O)c(OCc3cncc(C#N)c3)c2)cccc1-c1ccccc1 (centres unmarked) [Compound 37, reference compound] | 25100 | 17.8 |
| Cc1c(C#N)cncc1COc1cc(OCc2cccc(-c3ccccc3)c2C)ccc1CNC(CO)C(=O)O (centres unmarked) [Compound 38, reference compound] | 22600 | 6.1 |

same assay, conditions: in words; better than that of BMS202

| SMILES | effect on promoting IFN-γ secretion at the cellular level |
| --- | --- |
| Cc1c(CNc2ccc(CN[C@H](CO)C(=O)O)c(OCc3cncc(C#N)c3)c2)cccc1-c1ccccc1 [Compound 10] | significant effect on promoting IFN-γ secretion |

system: PBMCs cells; test: Cytotoxicity, Cell Titer-Glo, PBMCs cells; type: cell-based; settings: Homo sapiens, PBMC; 24 hours incubation; read-out: PBMCs cells IC50 (cell death)
Procedure: as §1

| SMILES | IC50 [µM] |
| --- | --- |
| Cc1c(CNc2ccc(CN[C@H](CO)C(=O)O)c(OCc3cccc(C#N)c3)c2)cccc1-c1ccccc1 [Compound 4] | > 100 |
| COc1cc(NCc2cccc(-c3ccccc3)c2C)cc(OCc2cccc(C#N)c2)c1CN[C@H](CO)C(=O)O [Compound 8] | > 100 |
| Cc1c(CNc2ccc(CN[C@H](CO)C(=O)O)c(OCc3cncc(C#N)c3)c2)cccc1-c1ccccc1 [Compound 10] | > 100 |
| COc1cc(NCc2cccc(-c3ccccc3)c2C)c(C)cc1CNC(CO)C(=O)O (centres unmarked) [Compound 14] | > 100 |
| Cc1cc(CN[C@H](CO)C(=O)O)c(OCc2cccnc2)cc1NCc1cccc(-c2ccccc2)c1C [Compound 17] | > 100 |
| Cc1cc(CN2C[C@H](O)C[C@H]2C(=O)O)c(OCc2cncc(C#N)c2)cc1NCc1cccc(-c2ccccc2)c1C [Compound 21] | 75.5 |
| Cc1c(CN(C)c2ccc(CNCCO)c(OCc3cccc(C#N)c3)c2)cccc1-c1ccccc1 [Compound 27] | > 100 |
| N#Cc1cncc(COc2cc(NCc3cccc(-c4ccccc4)c3Br)ccc2CNC(CO)C(=O)O)c1 (centres unmarked) [Compound 31] | > 100 |
| Cc1c(CNc2ccc(CN[C@H](CO)C(=O)O)c(OCc3cccc(C#N)c3)c2)cccc1-c1ccc2c(c1)OCCO2 [Compound 34] | > 100 |
| Cc1c(COc2ccc(CNC(CO)C(=O)O)c(OCc3cncc(C#N)c3)c2)cccc1-c1ccccc1 (centres unmarked) [Compound 37, reference compound] | 16.8 |
| Cc1c(C#N)cncc1COc1cc(OCc2cccc(-c3ccccc3)c2C)ccc1CNC(CO)C(=O)O (centres unmarked) [Compound 38, reference compound] | 26.6 |

biological target: human PD-L1 (Homo sapiens (Human), UniProt Q9NZQ7); test: Biofilm interferometry (BLI, OctetRED) binding to human PD-L1/AVI; settings: 1:1 binding model
Sequence (Q9NZQ7 19-290): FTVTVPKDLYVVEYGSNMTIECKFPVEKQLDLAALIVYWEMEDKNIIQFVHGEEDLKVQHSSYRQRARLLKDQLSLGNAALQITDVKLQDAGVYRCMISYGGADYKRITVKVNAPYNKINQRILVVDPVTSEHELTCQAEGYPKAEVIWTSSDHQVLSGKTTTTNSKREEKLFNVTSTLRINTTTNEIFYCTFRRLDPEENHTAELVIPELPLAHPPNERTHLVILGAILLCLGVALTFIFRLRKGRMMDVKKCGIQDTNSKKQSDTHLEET
Procedure: In the experiment, the instrument OctectRED of Fortebio Company based on biofilm interferometry (BLI) technology was used to capture human PD-L1/AVI with SA chips. The concentration of antigen PD-L1/AVI was diluted to 10 μg/mL with running buffer (PBS+0.02% Tween-20+2% DMSO), and the loading time was 300 s; similarly, the analyte was also diluted to the corresponding concentrations (20 nM, 10 nM, 5 nM, 2.5 nM, 1.25 nM, 0.625 nM, 0.3125 nM) with running buffer in gradient manner, and a buffer blank control group was set at the same time. The binding time of human PD-L1/AVI to the analyte was 180 s, and the dissociation time was 300 s; the chip was regenerated with 10 mM glycine HCl, pH 1.7 solution and repeated 5-second pulse for 3 times. The data were fitted to a 1:1 binding model to determine the equilibrium dissociation constant KD.

| Kd [µM] | kon [M⁻¹ s⁻¹] | SMILES |
| --- | --- | --- |
| 0.00181 | 651000 | Cc1c(CNc2ccc(CN[C@H](CO)C(=O)O)c(OCc3cccc(C#N)c3)c2)cccc1-c1ccccc1 [Compound 4] |
| 0.000296 | 849000 | Cc1c(CNc2ccc(CN[C@H](CO)C(=O)O)c(OCc3cncc(C#N)c3)c2)cccc1-c1ccccc1 [Compound 10] |
| 0.0675 | 12600 | Cc1c(COc2ccc(CNC(CO)C(=O)O)c(OCc3cncc(C#N)c3)c2)cccc1-c1ccccc1 (centres unmarked) [Compound 37, reference compound] |

same assay, conditions: 1:1 binding model, read-out: Kdis

| koff [s⁻¹] | SMILES |
| --- | --- |
| 0.00118 | Cc1c(CNc2ccc(CN[C@H](CO)C(=O)O)c(OCc3cccc(C#N)c3)c2)cccc1-c1ccccc1 [Compound 4] |
| 0.000251 | Cc1c(CNc2ccc(CN[C@H](CO)C(=O)O)c(OCc3cncc(C#N)c3)c2)cccc1-c1ccccc1 [Compound 10] |
| 0.000851 | Cc1c(COc2ccc(CNC(CO)C(=O)O)c(OCc3cncc(C#N)c3)c2)cccc1-c1ccccc1 (centres unmarked) [Compound 37, reference compound] |

Source: patent US20230303494A1, “BENZYLAMINE DERIVATIVE, PREPARATION METHOD THEREFOR AND USE THEREOF” (ACADEMY OF MILITARY MEDICAL SCIENCES, priority 2020, published 2023)
